Laboratory results reported in patent publication US20080287543A1, “Pharmaceutical composition comprising 5-methyl-2 (2'-chloro-6'-fluoroanillino) phen ylacetic acid” (priority 2003, published 2008).

Legend:
Type in all cases: physicochemical
[1] = Stability in 100% polyethylene glycol (PEG) 400 solution; details: 100% PEG 400, 50° C., in the dark, after 4 weeks
Source text: (§1) Thus, the ability to produce a shelf-stable parenteral formulation is unexpected.

[2] = Stability in 100% propylene glycol (PG) solution; details: 50° C., in the dark, after 4 weeks
Source text: as §1

Solubility in water = assay: Solubility in water
Source text: as §1

For `Cc1ccc(Nc2c(F)cccc2Cl)c(CC(=O)[O-])c1.[K+]` [Potassium salt of 5-methyl-2-(2′-chloro-6′-fluoroanilino)phenylacetic acid], the “degradation in a solution of 100% PEG 400” value [1] was 5% and the “degradation in a solution of 100% PG” value [2] was 7%.

In the case of `Cc1ccc(Nc2c(F)cccc2Cl)c(CC(=O)O)c1` [5-methyl-2-(2′-chloro-6′-fluoroanilino)phenylacetic acid], the solubility in water (Solubility in water) is reported as “relatively insoluble”.
